Measured values as given in US6054432A, “Means for treating prostate hypertrophy and prostate cancer” (Asta Medica Aktiengesellschaft, priority 1997, dated 2000).
Non-standard residues stand in square brackets, D forms with d. Residues, ends and D or L forms follow the SMILES beside them. dPhe(4-Cl) = N[C@H](Cc1ccc(Cl)cc1)C(=O)O; d2Nal = N[C@H](Cc1ccc2ccccc2c1)C(=O)O; dCit = NC(=O)NCCC[C@@H](N)C(=O)O; d3Pal = N[C@H](Cc1cccnc1)C(=O)O

Tests used:
[1] = system: benign prostate hypertrophy (BPH) patients; test: Clinical therapy of BPH with Cetrorelix (Example 1); type: in vivo, human; details: 4 to 8 weeks therapy regimen
Description: Cetrorelix is administered in a dose of 0.5 mg to 2 mg daily for 4 to 8 weeks for the therapy of BPH. A dose of 5 mg to 30 mg, dispensed once per week or every 10 days also over a time period of 4 to 8 weeks as well as one every two weeks or one injection per month of 20 mg to 60 mg can also decisively improve the clinical symptoms and signs. […] The prostate volume decreases by 20 to 40% during the treatment time of 4 to 8 weeks. […] In addition, at least 30% of the patients achieve an improvement of the urine flow of 6 ml/sec with this therapy. This is almost equivalent to an improvement like that associated with the golden standard operation, and in considerably shorter time. […] These clinical benefits continue for at least 3 to 6 months after therapy. This allows a long-term therapy of BPH with only an intermittent treatment of 2 to max. 4 injection cycles over 4 to 8 weeks.
This therapy represents a significant therapeutic advance in the treatment of BPH since it not only achieves an improvement of the clinical symptoms of BPH but also a diminution of the prostate and an improvement of the urine flow like those associated with surgery The protocols of the invention avoid the negative consequences of an operation, e.g. urine incontinence, retrograde ejaculation, blood loss with the consequence of blood transfusions and also the risks of infection associated with surgery.

BPH patients = details: 500 μg every 12 hours for 4 weeks, cited from earlier work
[2] = system: prostate carcinoma patients; details: cited from earlier work
[3] = 500 μg every 12 hours, end of the 6 weeks of therapy

CC(=O)N[C@H](Cc1ccc2ccccc2c1)C(=O)N[C@H](Cc1ccc(Cl)cc1)C(=O)N[C@H](Cc1cccnc1)C(=O)N[C@@H](CO)C(=O)N[C@@H](Cc1ccc(O)cc1)C(=O)N[C@H](CCCNC(N)=O)C(=O)N[C@@H](CC(C)C)C(=O)N[C@@H](CCCNC(=N)N)C(=O)N1CCC[C@H]1C(=O)N[C@H](C)C(N)=O [Cetrorelix] (Ac-[d2Nal][dPhe(4-Cl)][d3Pal]SY[dCit]LRP[dA]-NH2)
patients achieving an improvement of the urine flow of 6 ml/sec [1]: at least 30%
quality of life [1]: significant improvements
sexual performance [1]: No limitations in sexual performance are observed
testosterone level [1]: Submaximal decreases of testosterone occur, but these are above those levels associated with castration
increase of the peak flow of the urine ([1]; comparable to the α-blockers): approximately 3 ml/sec
testosterone levels during treatment (BPH patients; BPH patients, no castration values during the last three weeks): fluctuated at subnormal levels
testosterone levels, initially (BPH patients; all patients, initial phase): lowering in testosterone levels to a castration level
prostate volume (BPH patients): distinct decrease
symptoms of dysuria (BPH patients): distinct decrease
testosterone levels, initially ([2]; 500 μg every 12 hours for 6 weeks, all patients, initial phase): lowering in testosterone levels to a castration level
overall condition of the patient [2, 3]: considerable improvement
testosterone values at the end of therapy [2, 3]: at the castration levels
